Reference: US20230414758A1, “CAPSAICIN-DERIVED PHOTOSENSITIZER, AND PREPARATION METHOD AND USE THEREOF” (priority 2022, published 2023)

Tests used:
TRPV1 protein = target: T1, TRPV1 protein (Mus musculus, UniProt Q704Y3); test: Calcium regulation ability at the cellular level, Fluo-8 AM staining, confocal microscopy; assay type: cell-based; conditions: 4T1 cells
T1 construct: endogenous in cells; host or cells: 4T1 cells
Experimental: The specific operations were as follows.
A high-glucose DMEM cell culture medium containing 10% fetal bovine serum and 5% double antibodies (the following media all contained 10% fetal bovine serum and 5% double antibodies) was prepared. Triple negative breast cancer 4T1 cells in logarithmic growth phase were seeded in a Confocal cell culture dish at a density of 1.0×10^4 cells/well, and incubated in a cell incubator (37° C., 5% CO2) for 12 hrs. […] The cells were incubated in an incubator for another 12 hrs, and the culture medium was changed after incubation. The irradiation group was irradiated with LED light (660 nm, 20 mW cm^−2) for 15 min (without treatment in the non-irradiation group). After irradiation, the culture medium was discarded. The cells were rinsed three times with PBS, and the rinsed cells were stained (10 min) with a fluorescent dye Fluo-8 AM (50.0 μmol L^−1, 1.0 mL) for intracellular calcium. After staining, the cells were rinsed with PBS, and observed by laser confocal microscopy.

[1] = reference value used for calculation; cited from earlier work

T1 sequence (Q704Y3 whole entry): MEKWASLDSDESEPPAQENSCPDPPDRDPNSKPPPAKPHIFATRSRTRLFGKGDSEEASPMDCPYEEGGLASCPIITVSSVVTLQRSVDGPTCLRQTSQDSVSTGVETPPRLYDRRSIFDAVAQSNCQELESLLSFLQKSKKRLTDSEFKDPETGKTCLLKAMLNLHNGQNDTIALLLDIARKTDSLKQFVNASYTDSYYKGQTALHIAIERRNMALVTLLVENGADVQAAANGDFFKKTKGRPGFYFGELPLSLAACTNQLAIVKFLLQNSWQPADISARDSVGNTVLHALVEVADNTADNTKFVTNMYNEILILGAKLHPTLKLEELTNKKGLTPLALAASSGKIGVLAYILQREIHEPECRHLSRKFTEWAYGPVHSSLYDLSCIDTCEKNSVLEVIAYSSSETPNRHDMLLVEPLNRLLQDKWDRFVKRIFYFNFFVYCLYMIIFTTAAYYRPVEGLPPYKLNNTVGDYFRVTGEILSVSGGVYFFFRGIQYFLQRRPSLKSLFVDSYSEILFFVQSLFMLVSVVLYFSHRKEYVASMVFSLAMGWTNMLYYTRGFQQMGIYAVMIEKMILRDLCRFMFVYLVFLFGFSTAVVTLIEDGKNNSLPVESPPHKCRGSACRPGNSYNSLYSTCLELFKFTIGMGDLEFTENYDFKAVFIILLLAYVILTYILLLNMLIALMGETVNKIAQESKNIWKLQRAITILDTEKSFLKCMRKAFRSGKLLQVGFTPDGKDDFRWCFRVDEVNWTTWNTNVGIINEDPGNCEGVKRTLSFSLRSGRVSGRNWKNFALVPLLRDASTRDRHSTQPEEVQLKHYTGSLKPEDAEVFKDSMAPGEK

change of intracellular calcium fluorescence intensity after irradiation versus before irradiation (TRPV1 protein; LED 660 nm, 20 mW cm^−2, 15 min)	intracellular calcium fluorescence under non-irradiation and irradiation conditions (TRPV1 protein; compared with PBS and BDP groups)	Compound	singlet oxygen quantum yield of the reference [1]
does not change obviously	intense green fluorescence	COc1cc(CNC(=O)CCCC/C=C/C(C)C)ccc1O [CAP, capsaicin]	–
–	–	[Zn+2].c1ccc2c(c1)-c1nc-2nc2[n-]c(nc3nc([n-]c4nc(n1)-c1ccccc1-4)-c1ccccc1-3)c1ccccc21 [ZnPc, Zinc phthalocyanine]	1
